# Measurements: US20130225548A1, “Pyridine Derivative and Medicinal Agent” (NIPPON SHINYAKU CO., LTD., priority 2010, published 2013)
# Counter-ions that a name gives are not always drawn.
# Target: T1, Syk tyrosine kinase (Homo sapiens, UniProt P43405)
# T1 construct: purchased Carna Biosciences, Inc
# Test: Test for Syk tyrosine kinase inhibitory activity (ELISA)
# Format: biochemical
# Details: Syk tyrosine kinase (Carna Biosciences), 25 μM ATP in substrate solution, 30° C. 1 hour, n=2; read-out: Evaluation (IC50, concentration inhibiting the tyrosine kinase activity at 50%)
# How it was run: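 Syk kinase (0.025 nM stock before addition) with 625 nM biotinylated peptide and 25 μM ATP (substrate-solution levels) in Tris pH 7.5, MgCl2, DTT; 1 h at 30 °C on streptavidin plates. Phosphotyrosine detected by HRP anti-pTyr antibody, TMB, A450; IC50 by non-linear regression.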
row,SMILES,IC50
1,"N#Cc1ccnc(Nc2cc(C3CC3)cc(-c3ccc4ncn(Cc5ccncc5)c4c3)n2)c1 [Example 133, 2-({4-cyclopropyl-6-[1-(pyridin-4-ylmethyl)-1H-benzimidazol-6-yl]pyridin-2-yl}amino)pyridine-4-carbonitrile hydrochloride]",5 to 50 nM
2,"N#CCCn1cnc2cc(-c3cc(C4CC4)cc(Nc4cc(C#N)ccn4)n3)ccc21 [Example 134, 2-({6-[1-(2-cyanoethyl)-1H-benzimidazol-5-yl]-4-cyclopropylpyridin-2-yl}amino)pyridine-4-carbonitrile hydrochloride]",5 to 50 nM
3,"N#Cc1ccnc(Nc2cc(C3CC3)cc(-c3ccc4ncn(C5(CO)CCCCC5)c4c3)n2)c1 [Example 135, 2-[(4-cyclopropyl-6-(1-[1-(hydroxymethyl)cyclohexyl]-1H-benzimidazol-6-yl)pyridin-2-yl)amino]pyridine-4-carbonitrile hydrochloride]",5 to 50 nM
4,"N#Cc1ccnc(Nc2cc(C3CC3)cc(-c3ccc4ncn(C5CCC(F)(F)CC5)c4c3)n2)c1 [Example 136, 2-({4-cyclopropyl-6-[1-(4,4-difluorocyclohexyl)-1H-benzimidazol-6-yl]pyridine-2-yl}amino)pyridine-4-carbonitrile hydrochloride]",50 to 500 nM
5,"N#Cc1ccnc(Nc2cc(C3CC3)cc(-c3ccc4c(c3)ncn4Cc3ccccc3)n2)c1 [Example 137, 2-{[6-(1-benzyl-1H-benzimidazol-5-yl)-4-cyclopropylpyridin-2-yl]amino}pyridine-4-carbonitrile hydrochloride]",50 to 500 nM
6,"CO[C@H]1CC[C@H](n2cnc3ccc(-c4cc(C5CC5)cc(Nc5cc(C#N)ccn5)n4)cc32)CC1 [Example 138, 2-({4-cyclopropyl-6-[1-(trans-4-methoxycyclohexyl)-1H-benzimidazol-6-yl]pyridin-2-yl}amino)pyridine-4-carbonitrile hydrochloride]",50 to 500 nM
7,"N#Cc1ccnc(Nc2cc(C3CC3)cc(-c3ccc4ncn(C5CCOCC5)c4c3)n2)c1 [Example 139, 2-({4-cyclopropyl-6-[1-(tetrahydro-2H-pyran-4-yl)-1H-benzimidazol-6-yl]pyridin-2-yl}amino)pyridine-4-carbonitrile hydrochloride]",5 to 50 nM
8,"N#Cc1ccnc(Nc2cc(C3CC3)cc(-c3ccc4ncn(C5CCCC5O)c4c3)n2)c1 (stereo not drawn) [Example 140, 2-[(4-cyclopropyl-6-{1-[trans-2-hydroxycyclopenyl]-1H-benzimidazol-6-yl}pyridine-2-yl)amino]pyridine-4-carbonitrile hydrochloride]",5 to 50 nM
9,"CCn1cnc2ccc(-c3cc(C4CC4)cc(Nc4cc(C#N)ccn4)n3)cc21 [Example 142, 2-{[4-cyclopropyl-6-(1-ethyl-1H-benzimidazol-6-yl)pyridin-2-yl]amino}pyridine-4-carbonitrile hydrochloride]",50 to 500 nM
10,"N#Cc1ccnc(Nc2cc(C3CC3)cc(-c3ccc4ncn(C(CO)CO)c4c3)n2)c1 [Example 143, 2-({4-cyclopropyl-6-[1-(1,3-dihydroxypropan-2-yl)-1H-benzimidazol-6-yl]pyridin-2-yl}amino)pyridine-4-carbonitrile hydrochloride]",5 to 50 nM
11,"CC(C)(O)Cn1cnc2ccc(-c3cc(C4CC4)cc(Nc4cc(C#N)ccn4)n3)cc21 [Example 144, 2-({4-cyclopropyl-6-[1-(2-hydroxy-2-methylpropyl)-1H-benzimidazol-6-yl]pyridin-2-yl}amino)pyridine-4-carbonitrile hydrochloride]",50 to 500 nM
12,"N#Cc1ccnc(Nc2cc(C3CC3)cc(-c3ccc4ncn([C@H]5CC[C@@H](O)CC5)c4c3)n2)c1 [Example 145, 2-({4-cyclopropyl-6-[1-(cis-4-hydroxycyclohexyl)-1H-benzimidazol-6-yl]pyridin-2-yl}amino)pyridine-4-carbonitrile hydrochloride]",5 to 50 nM
13,"N#Cc1ccnc(Nc2cc(C3CC3)cc(-c3ccc4c(c3)ncn4CCO)n2)c1 [Example 147, 2-({4-cyclopropyl-6-[1-(2-hydroxyethyl)-1H-benzimidazol-5-yl]pyridin-2-yl}amino)pyridine-4-carbonitrile hydrochloride]",50 to 500 nM
14,"COCCn1cnc2cc(-c3cc(C4CC4)cc(Nc4cc(C#N)ccn4)n3)ccc21 [Example 148, hydrochloride]",50 to 500 nM
15,"CCn1cnc2cc(-c3cc(C4CC4)cc(Nc4cc(C#N)ccn4)n3)ccc21 [Example 149, 2-{[4-cyclopropyl-6-(1-ethyl-1H-benzimidazol-5-yl)pyridin-2-yl]amino}pyridine-4-carbonitrile hydrochloride]",50 to 500 nM
16,"N#Cc1ccnc(Nc2cc(C3CC3)cc(-c3ccc4c(c3)ncn4C3CC3)n2)c1 [Example 150, 2-{[4-cyclopropyl-6-(1-cyclopropyl-1H-benzimidazol-5-yl)pyridin-2-yl]amino}pyridin-4-carbonitrile hydrochloride]",50 to 500 nM

row,SMILES,IC50
1,"CC(=O)NCCn1cnc2cc(-c3cc(C4CC4)cc(Nc4cc(C#N)ccn4)n3)ccc21 [Example 151, N-[2-(5-{6-[(4-cyanopyridin-2-yl)amino]-4-cyclopropylpyridin-2-yl}-1H-benzimidazol-1-yl)ethyl]acetamide hydrochloride]",5 to 50 nM
2,"Cn1cnc2ccc(-c3cc(C4CC4)cc(Nc4cc(C#N)ccn4)n3)cc21 [Example 153, 2-{[4-cyclopropyl-6-(1-methyl-1H-benzimidazol-6-yl)pyridin-2-yl]amino}pyridine-4-carbonitrile hydrochloride]",5 to 50 nM
3,"N#Cc1ccnc(Nc2cc(C3CC3)cc(-c3ccc(CN4CCCN(C(N)=O)CC4)nc3)n2)c1 [Example 154, 4-({6-[(4-cyanopyridin-2-yl)amino]-4-cyclopropyl-2,3′-bipyridin-6′-yl}methyl)-1,4-diazepane-1-carboxamide hydrochloride]",50 to 500 nM
4,"Cc1cc(N2CCS(=O)(=O)CC2)ncc1-c1cc(C2CC2)cc(Nc2cc(C#N)ccn2)n1 [Example 155, 2-{[4-cyclopropyl-6′-(1,1-dioxidethiomorpholin-4-yl)-4′-methyl-2,3′-bipyridin-6-yl]amino}pyridine-4-carbonitrile hydrochloride]",5 to 50 nM
5,"N#Cc1ccnc(Nc2cc(C3CC3)cc(-c3ccc4[nH]c(=O)n([C@H]5CC[C@H](O)CC5)c4c3)n2)c1 [Example 156, 2-({4-cyclopropyl-6-[3-(trans-4-hydroxycyclohexyl)-2oxo-2,3-dihydro-1H-benzimidazol-5-yl]pyridin-2-yl}amino)pyridine-4-carbonitrile hydrochloride]",< 5 nM
6,"N#Cc1ccnc(Nc2cc(C3CC3)cc(-c3ccc4ccnc(N5CCNC(=O)C5)c4c3)n2)c1 [Example 158, 2-({4-cyclopropyl-6-[1-(3-oxopiperazin-1-yl)isoquinolin-7-yl]pyridin-2-yl}amino)pyridine-4-carbonitrile hydrochloride]",< 5 nM
7,"Cc1nc2ccc(-c3cc(C4CC4)cc(Nc4cc(C#N)ccn4)n3)cc2n1[C@H]1CC[C@H](O)CC1 [Example 159, 2-({4-cyclopropyl-6-[1-trans-4-hydroxycylohexyl)-2-methyl-1H-benzimidazol-6-yl]pyridin-2-yl}amino)pyridine-4-carbonitrile hydrochloride]",< 5 nM
8,"CC(C)c1nc2ccc(-c3cc(C4CC4)cc(Nc4cc(C#N)ccn4)n3)cc2n1[C@H]1CC[C@H](O)CC1 [Example 161, 2-({4-cyclopropyl-6-[1-(trans-4-hydroxycyclohexyl)-2-(propan-2-yl)-1H-benzimidazol-6-yl]pyridin-2-y}amino)pyridine-4-carbonitrile hydrochloride]",< 5 nM
9,"N#Cc1ccnc(Nc2cc(C3CC3)cc(-c3ccc4nc(CO)n([C@H]5CC[C@H](O)CC5)c4c3)n2)c1 [Example 162, 2-({4-cyclopropyl-6-[1-(trans-4-hydroxycyclohexyl)-2-(hydroxymethyl)-1H-benzimidazol-6-yl]pyridin-2-yl}amino)pyridine-4-carbonitrile hydrochloride]",< 5 nM
10,"N#Cc1ccnc(Nc2cc(C3CC3)cc(-c3ccc4ccnc(N5CCNCC5)c4c3)n2)c1 [Example 163, 2-({4-cyclopropyl-6-[1-(piperazin-1-yl)isoquinolin-7-yl]pyridin-2-yl}amino)pyridine-4-carbonitrile hydrochloride]",5 to 50 nM
11,"N#Cc1ccnc(Nc2cc(C3CC3)cc(-c3ccc4ccnc(N5CCC(O)CC5)c4c3)n2)c1 [Example 164, 2-({4-cyclopropyl-6-[1-(4-hydroxypiperidin-1-yl)isoquinolin-7-yl]pyridin-2-yl}amino)pyridine-4-carbonitrile hydrochloride]",5 to 50 nM
12,"N#Cc1ccnc(Nc2cc(C3CC3)cc(-c3ccc4ccnc(N5CC[C@@H](O)C5)c4c3)n2)c1 [Example 165, 2-[(4-cyclopropyl-6-{1-[(3R)-3-hydroxypyrrolidin-1-]isoquinolin-7-yl}pyridin-2-yl)amino]pyridine-4-carbonitrile hydrochloride]",5 to 50 nM
13,"N#Cc1ccnc(Nc2cc(C3CC3)cc(-c3ccc4ccnc(N5CC(O)C5)c4c3)n2)c1 [Example 166, 2-({4cyclopropyl-6-[1-(3-hydroxyazetidin-1-yl)isoquinolin-7-yl]pyridin-2-yl}amino)pyridine-4-carbonitrile hydrochloride]",5 to 50 nM
14,"N#Cc1ccnc(Nc2cc(C3CC3)cc(-c3ccc4ccnc(N5CCC[C@H]5CO)c4c3)n2)c1 [Example 167, 2-[(4-cyclopropyl-6-{1-[(2S)-2-(hydroxymethyl)pyrrolidin-1-yl]isoquinolin-7-yl}pyridin-2-yl)amino]pyridine-4-carbonitrile hydrochloride]",5 to 50 nM
15,"N#Cc1ccnc(Nc2cc(C3CC3)cc(-c3ccc4ccnc(N5CC[C@@H](F)C5)c4c3)n2)c1 [Example 168, 2-[(4-cyclopropyl-6-{1-[(3R)-3-fluoropyrrolidin-1-yl]isoquinolin-7-yl}-pyridin-2-yl)amino]pyridine-4-carbonitrile hydrochloride]",50 to 500 nM
